This note sets out measurements from patent publication US9714247B2, “Multiple kinase pathway inhibitors” (Mannkind Corporation, priority 2012, dated 2017).

Like-named read-outs stand apart in the source and are kept apart here. Bounds are passed on as bounds.

The target in one assay is Lyn (Homo sapiens (Human), UniProt P07948). Kind of assay: biochemical.
A further assay deals with DoHH2. Kind of assay: CellTiter-Glo proliferation/viability assay. The following applies: Homo sapiens, DOHH-2; 48 hrs; read-out: DoHH2 EC50. It is filed as cell-based, human.
Another assay has as its system Ramos. The experiment in a line: CellTiter-Glo proliferation/viability assay. It is filed as cell-based, human. The following applies: read-out: Ramos EC50.
The target in the next assay is BTK (Homo sapiens (Human), UniProt Q06187).
Chain of BTK (Q06187 whole entry): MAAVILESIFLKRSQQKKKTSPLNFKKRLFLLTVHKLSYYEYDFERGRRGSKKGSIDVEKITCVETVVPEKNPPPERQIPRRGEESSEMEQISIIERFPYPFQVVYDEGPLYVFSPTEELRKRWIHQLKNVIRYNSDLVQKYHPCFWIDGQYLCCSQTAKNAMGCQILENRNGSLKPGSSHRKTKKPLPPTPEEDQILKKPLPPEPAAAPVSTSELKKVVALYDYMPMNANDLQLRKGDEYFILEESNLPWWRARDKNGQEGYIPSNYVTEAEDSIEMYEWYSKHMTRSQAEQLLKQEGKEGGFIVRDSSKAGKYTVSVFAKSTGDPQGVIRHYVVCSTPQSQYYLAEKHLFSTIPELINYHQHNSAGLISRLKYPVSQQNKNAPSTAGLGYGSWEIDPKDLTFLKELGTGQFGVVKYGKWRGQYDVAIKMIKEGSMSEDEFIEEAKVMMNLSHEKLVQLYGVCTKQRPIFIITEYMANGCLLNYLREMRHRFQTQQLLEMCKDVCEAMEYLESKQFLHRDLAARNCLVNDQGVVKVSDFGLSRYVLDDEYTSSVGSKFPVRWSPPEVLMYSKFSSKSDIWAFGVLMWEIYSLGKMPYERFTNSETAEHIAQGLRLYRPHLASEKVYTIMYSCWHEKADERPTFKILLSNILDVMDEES
A further assay deals with Src (Homo sapiens (Human), UniProt P12931). The experiment in a line: biochemical.
Chain of Src (P12931 whole entry, looked up): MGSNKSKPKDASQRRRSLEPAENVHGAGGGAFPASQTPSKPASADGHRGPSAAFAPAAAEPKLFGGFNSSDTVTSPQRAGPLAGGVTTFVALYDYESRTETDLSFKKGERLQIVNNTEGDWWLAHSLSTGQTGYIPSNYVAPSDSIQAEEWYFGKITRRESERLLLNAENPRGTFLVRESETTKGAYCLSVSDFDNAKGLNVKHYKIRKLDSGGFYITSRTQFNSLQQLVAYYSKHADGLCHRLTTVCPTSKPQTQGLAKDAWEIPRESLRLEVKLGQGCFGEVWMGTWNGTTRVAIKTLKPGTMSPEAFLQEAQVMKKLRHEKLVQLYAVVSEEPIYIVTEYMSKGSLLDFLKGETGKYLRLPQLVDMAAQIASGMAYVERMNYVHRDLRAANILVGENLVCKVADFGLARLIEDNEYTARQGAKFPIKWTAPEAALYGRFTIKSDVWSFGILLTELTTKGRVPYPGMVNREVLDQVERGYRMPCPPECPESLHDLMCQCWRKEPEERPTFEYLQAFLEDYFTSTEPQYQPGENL

Chain of Lyn (P07948 whole entry): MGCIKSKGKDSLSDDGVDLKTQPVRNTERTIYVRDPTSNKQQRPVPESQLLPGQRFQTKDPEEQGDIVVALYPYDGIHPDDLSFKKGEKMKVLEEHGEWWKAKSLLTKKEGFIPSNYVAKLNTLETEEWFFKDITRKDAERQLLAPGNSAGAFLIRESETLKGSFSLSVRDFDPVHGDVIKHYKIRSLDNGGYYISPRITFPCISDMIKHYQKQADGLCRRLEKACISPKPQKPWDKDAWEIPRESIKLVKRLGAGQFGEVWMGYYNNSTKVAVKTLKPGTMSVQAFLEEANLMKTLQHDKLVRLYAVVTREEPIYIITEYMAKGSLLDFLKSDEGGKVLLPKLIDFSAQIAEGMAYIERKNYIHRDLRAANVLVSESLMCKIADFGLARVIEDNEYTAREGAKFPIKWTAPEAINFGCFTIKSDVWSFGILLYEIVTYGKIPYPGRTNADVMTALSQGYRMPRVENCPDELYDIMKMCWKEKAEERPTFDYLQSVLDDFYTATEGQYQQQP

In the case of `CCn1c(=O)c(-c2ccccc2)cc2cnc(Nc3cc(N4CCN(CCO)CC4)nc(C)n3)cc21` [Compound 5, 1-Ethyl-7-{6-[4-(2-hydroxy-ethyl)-piperazin-1-yl]-2-methyl-pyrimidin-4-ylamino}-3-phenyl-1H-[1,6]naphthyridin-2-one], the IC50 against Lyn lay in the range of 100 to 1000 nM; against BTK it was 100 to 1000 nM; against Src it was 1000 to 5000 nM. For the same compound, the EC50 in the assay on DoHH2 is 1000 to 10000 nM; in the assay with Ramos (Homo sapiens, Ramos, 48 h) it was over 10000 nM.
On to `CCN(CC)CCOc1ccc(Nc2cc3c(cn2)cc(-c2c(F)cccc2F)c(=O)n3C2CCOC2)nc1` (single isomer, unassigned) [Compound 143, (S or R)-7-((5-(2-(diethylamino)ethoxy)pyridin-2-yl)amino)-3-(2,6-difluorophenyl)-1-(tetrahydrofuran-3-yl)-1,6-naphthyridin-2(1H)-one], for which the half-inhibitory concentration (IC50) on Lyn (Lyn IC50), against BTK and against Src was under 100 nM throughout. Further, the values for the 50% effective concentration (EC50) with DoHH2 and in the assay with Ramos (48 hrs) were under 1000 nM and over 10000 nM, respectively.
In the case of `CCn1c(=O)c(-c2ccccc2)cc2cnc(Nc3ccc(OCCN(C)C)cn3)cc21` [Compound 48, 7-[5-(2-Dimethylamino-ethoxy)-pyridin-2-ylamino]-1-ethyl-3-phenyl-1H-[1,6]naphthyridin-2-one], the 50% inhibitory concentration (IC50) against Lyn is 100 to 1000 nM; at BTK it was 1000 to 5000 nM; on Src, 1000 to 5000 nM. Besides, the concentration for a half-maximal effect (EC50) with DoHH2 was 1000 to 10000 nM; in the assay with Ramos (Homo sapiens, Ramos, 48 hrs), over 10000 nM.
Turning to `CCN(CC)CCOc1ccc(Nc2cc3[nH]c(=O)c(-c4ccccc4)cc3cn2)nc1` [Compound 14, 7-[5-(2-Diethylamino-ethoxy)-pyridin-2-ylamino]-3-phenyl-1H-[1,6]naphthyridin-2-one], the IC50 at Lyn is 100 to 1000 nM; on BTK (read-out: BTK IC50), under 100 nM; on Src, 100 to 1000 nM. The concentration for a half-maximal effect (EC50) was 1000 to 10000 nM with DoHH2 and over 10000 nM in the assay on Ramos (Homo sapiens, Ramos, 48 hrs).
Regarding `CCn1c(=O)c(-c2ccccc2)cc2cnc(Nc3cn(C)cn3)cc21` [Compound 113, 1-ethyl-7-((1-methyl-1H-imidazol-4-yl)amino)-3-phenyl-1,6-naphthyridin-2(1H)-one], the results for the IC50 on Lyn, against BTK and against Src were 100 to 1000 nM, 1000 to 5000 nM and 100 to 1000 nM, respectively. The EC50 in the assay with DoHH2 is over 10000 nM; in the assay on Ramos (Homo sapiens, Ramos, 48 h), over 10000 nM.
As for `CCN(CC)CCOc1ccc(Nc2cc3c(cn2)cc(-c2ccccc2)c(=O)n3C2CCN(C)C2)nc1` (stereo not shown) [Compound 58, 7-((5-(2-(diethylamino)ethoxy)pyridin-2-yl)amino)-1-(1-methylpyrrolidin-3-yl)-3-phenyl-1,6-naphthyridin-2(1H)-one], the IC50 lay in the range of 100 to 1000 nM against Lyn (Lyn IC50), 1000 to 5000 nM against BTK and 100 to 1000 nM against Src. The concentration for a half-maximal effect (EC50) in the assay on DoHH2 is 1000 to 10000 nM; in the assay with Ramos (Homo sapiens, Ramos, 48 h) it was over 10000 nM.
As for `CCn1c(=O)c(-c2ccccc2)cc2cnc(Nc3ccc(N(C)C)cn3)cc21` [Compound 64, 7-(5-Dimethylamino-pyridin-2-ylamino)-1-ethyl-3-phenyl-1H-[1,6]naphthyridin-2-one], the half-inhibitory concentration (IC50) on Lyn was 100 to 1000 nM; against BTK, 1000 to 5000 nM; against Src, 100 to 1000 nM. In addition, the half-maximal effective concentration (EC50) in the assay with DoHH2 was under 1000 nM; in the assay with Ramos (Homo sapiens, Ramos, 48 hrs), over 10000 nM.
As to `CCn1c(=O)c(-c2ccccc2)cc2cnc(Nc3ccnc(OC)n3)cc21` [Compound 62, 1-Ethyl-7-(2-methoxy-pyrimidin-4-ylamino)-3-phenyl-1H-[1,6]naphthyridin-2-one], the IC50 fell in the range of 1000 to 5000 nM on Lyn (Lyn IC50), 1000 to 5000 nM on BTK and 100 to 1000 nM at Src. Also, the concentration for a half-maximal effect (EC50) with DoHH2 is under 1000 nM; with Ramos (Homo sapiens, Ramos, 48 h), 1000 to 10000 nM.
Turning to `CCN(CC)CCOc1ccc(Nc2cc3[nH]c(=O)c(C(C)C)cc3cn2)nc1` [Compound 49, 7-(5-(2-(diethylamino)ethoxy)pyridin-2-ylamino)-3-isopropyl-1,6-naphthyridin-2(1H)-one], the IC50 is 100 to 1000 nM against Lyn, 1000 to 5000 nM against BTK and 100 to 1000 nM at Src. The concentration giving a half-maximal response (EC50) in the assay with DoHH2 is 1000 to 10000 nM; with Ramos (Homo sapiens, Ramos, 48 h) it was over 10000 nM.
In the case of `CCn1c(=O)c(-c2ccccc2)cc2cnc(Nc3ccc(OC)nn3)cc21` [Compound 61, 1-Ethyl-7-(6-methoxy-pyridazin-3-ylamino)-3-phenyl-1H-[1,6]naphthyridin-2-one], the IC50 is 1000 to 5000 nM against Lyn, 1000 to 5000 nM against BTK and 100 to 1000 nM against Src. The 50% effective concentration (EC50) in the assay with DoHH2 is under 1000 nM; in the assay on Ramos (Homo sapiens, Ramos, 48 hrs), 1000 to 10000 nM.
On to `CCn1c(=O)c(-c2ccccc2)cc2cnc(Nc3ccc(OC)cn3)cc21` [Compound 51, 1-Ethyl-7-(5-methoxy-pyridin-2-ylamino)-3-phenyl-1H-[1,6]naphthayridin-2-one], for which the results for the half-inhibitory concentration (IC50) against Lyn, against BTK and against Src were 100 to 1000 nM, 1000 to 5000 nM and 100 to 1000 nM, respectively. Further, the EC50 with DoHH2 is 1000 to 10000 nM; in the assay on Ramos (Homo sapiens, Ramos, 48 hrs), over 10000 nM.
With `CCn1c(=O)c(C#CC(C)(C)O)cc2cnc(Nc3ccc(C)cn3)cc21` [Compound 54], the IC50 at Lyn lay in the range of 100 to 1000 nM; against BTK it was 1000 to 5000 nM; on Src it was 100 to 1000 nM. For the same compound, the EC50 in the assay on DoHH2 was 1000 to 10000 nM; in the assay on Ramos (Homo sapiens, Ramos, 48 hrs), over 10000 nM.
`CCN(CC)CCOc1ccc(Nc2cc3c(cn2)cc(-c2ccccn2)c(=O)n3CC)nc1` [Compound 102, 7-((5-(2-(diethylamino)ethoxy)pyridin-2-yl)amino)-1-ethyl-3-(pyridin-2-yl)-1,6-naphthyridin-2(1H)-one]: the IC50 is 100 to 1000 nM on Lyn (Lyn IC50), over 5000 nM on BTK (read-out: BTK IC50) and 100 to 1000 nM at Src. Further, the EC50 is 1000 to 10000 nM with DoHH2 and over 10000 nM in the assay on Ramos (Homo sapiens, Ramos, 48 h).
For the compound `CCN(CC)CCOc1ccc(Nc2cc3c(cn2)cc(-c2ccccc2)c(=O)n3CC2CCN(C)C2)nc1` (stereo not shown) [Compound 65, 7-((5-(2-(diethylamino)ethoxy)pyridin-2-yl)amino)-1-((1-methylpyrrolidin-3-yl)methyl)-3-phenyl-1,6-naphthyridin-2(1H)-one], the half-maximal inhibitory concentration (IC50) on Lyn (Lyn IC50) was 1000 to 5000 nM; on BTK (read-out: BTK IC50), over 5000 nM; at Src, 100 to 1000 nM. For the same compound, the EC50 in the assay on DoHH2 is under 1000 nM; in the assay on Ramos (Homo sapiens, Ramos, 48 h), over 10000 nM.
In the case of `NCCn1c(=O)c(-c2c(F)cccc2F)cc2cnc(Nc3ccc(F)cn3)cc21` [Compound 127, 1-(2-aminoethyl)-3-(2,6-difluorophenyl)-7-((5-fluoropyridin-2-yl)amino)-1,6-naphthyridin-2(1H)-one], the figures for the 50% inhibitory concentration (IC50) against Lyn, on BTK (read-out: BTK IC50) and on Src were 100 to 1000 nM, under 100 nM and 100 to 1000 nM, respectively. Moreover, the EC50 in the assay on DoHH2 is 1000 to 10000 nM; in the assay on Ramos (Homo sapiens, Ramos, 48 hrs) it was over 10000 nM.
With `CCn1c(=O)c(-c2ccccc2)cc2cnc(Nc3cnccn3)cc21` [Compound 6, 1-Ethyl-3-phenyl-7-(pyrazin-2-ylamino)-1H-[1,6]naphthyridin-2-one], the IC50 lay in the range of 100 to 1000 nM on Lyn, 1000 to 5000 nM against BTK and 1000 to 5000 nM on Src. Moreover, the EC50 in the assay with DoHH2 was over 10000 nM; in the assay with Ramos (Homo sapiens, Ramos, 48 hrs), over 10000 nM.
Regarding `CCN(CC)CCOc1ccc(Nc2cc3c(cn2)cc(-c2ccccc2)c(=O)n3-c2cccnc2)nc1` [Compound 84, 7-[5-(2-Diethylamino-ethoxy)-pyridin-2-ylamino]-3-phenyl-1-pyridin-3-yl-1H-[1,6]naphthyridin-2-one], the IC50 fell in the range of 1000 to 5000 nM against Lyn, 100 to 1000 nM at BTK and 100 to 1000 nM on Src. The EC50 is 1000 to 10000 nM in the assay on DoHH2 and over 10000 nM with Ramos (Homo sapiens, Ramos, 48 hrs).
On to `CCn1c(=O)c(C2CC2)cc2cnc(Nc3ccc(C)cn3)cc21` [Compound 30, 3-Cyclopropyl-1-ethyl-7-(5-methyl-pyridin-2-ylamino)-1H-[1,6]naphthaayridin-2-one], for which the half-inhibitory concentration (IC50) against Lyn is 1000 to 5000 nM; at BTK (read-out: BTK IC50), over 5000 nM; on Src it was 100 to 1000 nM. The EC50 is 1000 to 10000 nM in the assay with DoHH2 and 1000 to 10000 nM in the assay with Ramos (Homo sapiens, Ramos, 48 h).
Regarding `CCn1c(=O)c(-c2ccccc2)cc2cnc(Nc3ccc(CN4CCNCC4)cn3)cc21` [Compound 110, 1-ethyl-3-phenyl-7-((5-(piperazin-1-ylmethyl)pyridin-2-yl)amino)-1,6-naphthyridin-2(1H)-one], the half-inhibitory concentration (IC50) at Lyn is 100 to 1000 nM; at BTK (read-out: BTK IC50), under 100 nM; on Src it was 100 to 1000 nM. In addition, the concentration for a half-maximal effect (EC50) in the assay with DoHH2 was under 1000 nM; in the assay on Ramos (Homo sapiens, Ramos, 48 hrs), 1000 to 10000 nM.
Take `O=c1c(-c2c(Cl)cccc2Cl)cc2cnc(Nc3ccc(F)cn3)cc2n1C1CCOC1` (single isomer, unassigned) [Compound 147, (S or R)-3-(2,6-dichlorophenyl)-7-((5-fluoropyridin-2-yl)amino)-1-(tetrahydrofuran-3-yl)-1,6-naphthyridin-2(1H)-one]: the IC50 on Lyn, on BTK and against Src was under 100 nM throughout. Further, the half-maximal effective concentration (EC50) is under 1000 nM with DoHH2 and over 10000 nM in the assay on Ramos (Homo sapiens, Ramos, 48 h).
For the compound `CCN(CC)CCOc1ccc(Nc2cc3c(cn2)cc(-c2ccc(SC)cc2)c(=O)n3CC)nc1` [Compound 104, 7-((5-(2-(diethylamino)ethoxy)pyridin-2-yl)amino)-1-ethyl-3-(4-(methylthio)phenyl)-1,6-naphthyridin-2(1H)-one], the values for the IC50 against Lyn, on BTK (read-out: BTK IC50) and at Src were 100 to 1000 nM, over 5000 nM and 100 to 1000 nM, respectively. The concentration giving a half-maximal response (EC50) in the assay on DoHH2 lay within 1000 to 10000 nM; in the assay with Ramos (Homo sapiens, Ramos, 48 h), 1000 to 10000 nM.
Take `CCn1c(=O)c(C#CCO)cc2cnc(Nc3ccc(C)cn3)cc21` [Compound 53]: the IC50 at Lyn is 1000 to 5000 nM; on BTK (read-out: BTK IC50), over 5000 nM; against Src, 100 to 1000 nM. For the same compound, the EC50 with DoHH2 is 1000 to 10000 nM; with Ramos (Homo sapiens, Ramos, 48 hrs), 1000 to 10000 nM.
With `CCn1c(=O)c(-c2ccccc2)cc2cnc(Nc3ccccn3)cc21` [Compound 7, 1-Ethyl-3-phenyl-7-(pyridin-2-ylamino)-1H-[1,6]naphthyridin-2-one], the values for the IC50 at Lyn, on BTK and on Src were 1000 to 5000 nM, 100 to 1000 nM and 100 to 1000 nM, respectively. Also, the EC50 is 1000 to 10000 nM with DoHH2 and over 10000 nM with Ramos (Homo sapiens, Ramos, 48 h).
